The text below walks through data of ChEMBL document CHEMBL3508140 (2016).

The nature of data set [1]: Recovery of 7-deoxy epirubicinol aglycone following intraperitoneal epirubicin at 4 mg.Kg-1 dose in mouse. Type of data set: ADME, organism-based, CD-1, Plasma. The note with it: in vivo, ip.
The nature of data set [2]: Recovery of 7-deoxy epirubicinol aglycone following intravenous epirubicin at 4 mg.Kg-1 dose in rat. In kind it is ADME, organism-based, SD, Plasma. The note with it: in vivo.
Data set [3] can be described thus: Recovery of 7-deoxy epirubicinol aglycone following intraperitoneal epirubicin at 4 mg.Kg-1 dose in hamster. Type of data set: ADME, organism-based, Cricetulus griseus, Plasma. As to conditions: chinese hamster, in vivo, ip.
A short description of data set [4]: Recovery of 7-deoxy epirubicinol aglycone following intravenous epirubicin at 4 mg.Kg-1 dose in rabbit. Type of data set: ADME, organism-based, Oryctolagus cuniculus, New Zealand White, Plasma. The note with it: in vivo.
Data set [5] in a line: Recovery of 7-deoxy epirubicinol aglycone following intravenous epirubicin at 1.5 mg.Kg-1 dose in man. In kind it is ADME, organism-based, Plasma. As to conditions: human, in vivo.
A short description of data set [6]: Detection of 7-deoxydoxorubicinol aglycone in plasma following single intravenous epirubicin at 10 mg.Kg-1 dose in female mouse bearing colon tumor. In kind it is ADME, organism-based, BALB/c. The note with it: in vivo.
Data set [7] is described as follows: Detection of 7-deoxydoxorubicinol aglycone in plasma following single intravenous doxorubicin at 10 mg.Kg-1 dose in female mouse bearing colon tumor. In kind it is ADME, organism-based, BALB/c. Further details: dose 10 mg.Kg-1, dosed compound id 2.46809e+06, dosed compound name Doxorubicin, gender F, regimen Single, route intravenous, sampling time 48 h. As to conditions: in vivo.

Data set [8] can be described thus: Detection of 7-deoxydoxorubicinol aglycone in heart following single intravenous epirubicin at 10 mg.Kg-1 dose in female mouse bearing colon tumor. Type of data set: ADME, organism-based, BALB/c. The note with it: in vivo.
Data set [9] is described as follows: Detection of 7-deoxydoxorubicinol aglycone in heart following single intravenous doxorubicin at 10 mg.Kg-1 dose in female mouse bearing colon tumor. Type of data set: ADME, organism-based, BALB/c. Further details: dose 10 mg.Kg-1, dosed compound id 2.46809e+06, dosed compound name Doxorubicin, gender F, regimen Single, route intravenous, sampling time 48 h. As to conditions: in vivo.

The nature of data set [10]: Detection of 7-deoxydoxorubicinol aglycone in tumor following single intravenous epirubicin at 10 mg.Kg-1 dose in female mouse bearing colon tumor. In kind it is ADME, organism-based, BALB/c, Neoplasm. The note with it: in vivo.
Data set [11] is described as follows: Detection of 7-deoxydoxorubicinol aglycone in tumor following single intravenous doxorubicin at 10 mg.Kg-1 dose in female mouse bearing colon tumor. In kind it is ADME, organism-based, BALB/c, Neoplasm. Further details: dose 10 mg.Kg-1, dosed compound id 2.46809e+06, dosed compound name Doxorubicin, gender F, regimen Single, route intravenous, sampling time 48 h. The note with it: in vivo.

Data set [12] in a line: AUC values (0-48 h) of 7-deoxy doxorubicin-aglycone in plasma following single intravenous doxorubicin at 10 mg.Kg-1 dose in female mouse bearing colon tumor. Type of data set: ADME, organism-based, BALB/c. Also noted: time < 48 hr, dose 10 mg.Kg-1, dosed compound id 2.46809e+06, dosed compound name Doxorubicin, gender F, regimen Single, route intravenous, sampling time 48 h. The note with it: in vivo.

Data set [13] is described as follows: AUC values (0-48 h) of 7-deoxy doxorubicin-aglycone in heart following single intravenous doxorubicin at 10 mg.Kg-1 dose in female mouse bearing colon tumor. Further details: time < 48 hr, dose 10 mg.Kg-1, dosed compound id 2.46809e+06, dosed compound name Doxorubicin, gender F, regimen Single, route intravenous, sampling time 48 h. Type of data set: ADME, organism-based, BALB/c. The note with it: in vivo.

The nature of data set [14]: AUC values (0-48 h) of 7-deoxy doxorubicin-aglycone in tumor following single intravenous doxorubicin at 10 mg.Kg-1 dose in female mouse bearing colon tumor. Type of data set: ADME, organism-based, BALB/c, Neoplasm. Also noted: time < 48 hr, dose 10 mg.Kg-1, dosed compound id 2.46809e+06, dosed compound name Doxorubicin, gender F, regimen Single, route intravenous, sampling time 48 h. The note with it: in vivo.

A short description of data set [15]: AUC values (0-48 h) of 7-deoxy epirubicinol aglycone in plasma following single intravenous epirubicin at 10 mg.Kg-1 dose in female mouse bearing colon tumor. Type of data set: ADME, organism-based, BALB/c. As to conditions: in vivo.
A short description of data set [16]: AUC values (0-48 h) of 7-deoxy epirubicinol aglycone in heart following single intravenous epirubicin at 10 mg.Kg-1 dose in female mouse bearing colon tumor. As to conditions: in vivo. Type of data set: ADME, organism-based, BALB/c.
Data set [17] is described as follows: AUC values (0-48 h) of 7-deoxy epirubicinol aglycone in tumor following single intravenous epirubicin at 10 mg.Kg-1 dose in female mouse bearing colon tumor. Type of data set: ADME, organism-based, BALB/c, Neoplasm. The note with it: in vivo.

Structures are written as SMILES.

Regarding `COc1cccc2c1C(=O)c1c(O)c3c(c(O)c1C2=O)C[C@@](O)(C(O)CO)CC3` (some centres not stated), the Compound recovery is given as 20 10^-9M in data set [1]; 4.2 10^-9M in data set [2]; 21 10^-9M in data set [3]; 4.2 10^-9M in data set [4]; 25 10^-9M in data set [5]; “OUTCOME = Observed” in data set [6]. Besides, the Compound recovery result in data set [7], in [8], in data set [9], in data set [10] and in data set [11] was “OUTCOME = Observed” each time. Moreover, the AUC in data set [12] turned out to be 83.3 nmol·min/mL; in data set [13], 218 nmol·min/g; in data set [14], 204 nmol·min/g; in data set [15], 53.9 nmol·min/mL; in data set [16], 66 nmol·min/g; in data set [17], 99 nmol·min/g.
